Legend:
[1] = target: Recombinant human Cbl-b (aa 36-427) (Homo sapiens (Human), UniProt Q13191); assay: Cbl-b Biochemical Assay (TR-FRET); conditions: read-out: TR-FRET hCbl-b IC50
How it was run: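 Two-step TR-FRET: 6 nM biotinylated Cbl-b preincubated 30-60 min with compound, then 60 min at RT with 1-2.5 nM Src-Zap70 and 0.5 mM ATP in HEPES pH 7.0 buffer, 1% DMSO. Stopped with 5 mM EDTA plus 100 nM UBE2D2-Ub-FL-BODIPY and 1 nM streptavidin-Tb, 60 min; 520 nm signal; IC50 from 4-parameter fit.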

[2] = target: Recombinant human c-Cbl (aa 47-435) (Homo sapiens (Human), UniProt P22681); assay: c-Cbl Biochemical Assay (TR-FRET)
Description: Recombinant human c-Cbl (aa 47-435) was expressed in E. coli, purified and biotinylated in vitro. The protein was diluted to 12 nM in freshly prepared assay buffer consisting of 50 mM HEPES, pH 7.0, 100 mM NaCl, 5 mM MgCl2, 0.01% Triton-X 100, 0.01% BSA and 1 mM DTT. Recombinant human Src (aa 254-536)-[…]-Zap-70 (aa 281-297) fusion protein was expressed in E. coli and purified. Protein was diluted in assay buffer to 5-20 nM and ATP was added to 1 mM. Recombinant human UBE2D2([…]) was expressed in E. coli, purified and ubiquitinated and Bodipy labelled in vitro. Protein was diluted to 200 nM in assay buffer without MgCl2 (or Cisbio PPI buffer). Streptavidin-Terbium was added to 2 nM and EDTA to 10 mM, to provide a binding assay mix. Compounds were dissolved in DMSO and diluted to prepare a ten-point half log dilution series. 100 nl of each compound concentration was dispensed in duplicate in a 384 well black assay plate using acoustic dispensing. Wells for maximum signal controls received 100 nl of DMSO only and wells for minimum controls received 100 nl of a reference inhibitor compound at a final assay concentration of […] to produce 100% inhibition. 5 μl of diluted c-cbl enzyme was added to all wells of the assay plate and incubated at RT for 30 min. The enzyme assay was initiated by addition of 5 μl of Src-Zap/ATP mix to all wells, and the plate incubated at RT for 60-90 min. The enzyme reaction was terminated and the binding reaction was initiated by adding 10 μl of binding assay mix to all wells and incubating the plate at RT for 60 min prior to assay read. Final assay conditions consisted of 6 nM c-cbl, 2.5-10 nM Src-Zap70, 0.5 mM ATP, 1% (v/v) DMSO (enzyme reaction) and 100 nM UBE2D2([…])-Ub-FL-BODIPY, 5 mM EDTA, 1 nM Streptavidin-Tb (binding reaction). The HTRF assay signal was measured at 520 nm on an Envision plate reader, with reference signal at 485 or 620 nm. Data was normalized using maximum and minimum assay controls: % Inhibition=100-(100*((maximum control)-unknown)/(maximum control-minimum control)). A 4-parameter dose-response equation was used to fit the normalized dose-response data and derive an IC50 for test compounds.

Sequence of Recombinant human Cbl-b (aa 36-427) (Q13191 36-427): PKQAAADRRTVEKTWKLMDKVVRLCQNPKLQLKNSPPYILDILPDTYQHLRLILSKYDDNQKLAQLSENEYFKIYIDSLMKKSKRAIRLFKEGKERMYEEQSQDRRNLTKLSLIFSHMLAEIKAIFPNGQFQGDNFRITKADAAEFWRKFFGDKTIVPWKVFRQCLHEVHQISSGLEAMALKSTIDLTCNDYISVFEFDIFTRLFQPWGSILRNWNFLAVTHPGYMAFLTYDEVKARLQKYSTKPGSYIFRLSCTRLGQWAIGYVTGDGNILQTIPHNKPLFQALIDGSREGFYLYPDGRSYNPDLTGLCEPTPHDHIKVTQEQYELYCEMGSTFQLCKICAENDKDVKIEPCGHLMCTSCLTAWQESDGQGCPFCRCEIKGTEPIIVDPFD
Sequence of Recombinant human c-Cbl (aa 47-435) (P22681 47-435): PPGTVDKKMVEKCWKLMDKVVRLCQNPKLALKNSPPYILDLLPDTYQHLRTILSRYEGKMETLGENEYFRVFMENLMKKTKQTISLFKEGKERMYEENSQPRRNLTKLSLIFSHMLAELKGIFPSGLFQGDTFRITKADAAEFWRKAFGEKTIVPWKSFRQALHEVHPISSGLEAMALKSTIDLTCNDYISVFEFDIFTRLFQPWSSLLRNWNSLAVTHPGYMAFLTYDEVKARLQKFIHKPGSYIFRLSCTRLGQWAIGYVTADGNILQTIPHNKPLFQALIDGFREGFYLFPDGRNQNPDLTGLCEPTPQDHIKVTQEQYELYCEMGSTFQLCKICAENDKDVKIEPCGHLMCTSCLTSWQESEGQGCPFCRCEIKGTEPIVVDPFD

Row | SMILES | IC50 [1] | IC50 [2]
1 | Cn1cnnc1-c1cc(C#N)ccc1-c1cc(C2CC2)nc(N2Cc3ccc(CNCC4COC4)cc3C2=O)c1 [AHZ-2, 4-[2-Cyclopropyl-6-(6-{1[(oxetan-3-ylmethyl)amino]methyl}-1-oxo-3H-isoindol-2-yl)pyridin-4-yl]-3-(4-methyl-1,2,4-triazol-3-yl)benzonitrile] | ≤ 200 nM | ≤ 200 nM
2 | Cn1cnnc1-c1cc(C#N)ccc1-c1cc(C2CC2)nc(N2Cc3ccc(CNCC4CCC4)cc3C2=O)c1 [AIA-2, 4-[2-(6-{[(Cyclobutylmethyl)amino]methyl}-1-oxo-3H-isoindol-2-yl)-6-cyclopropylpyridin-4-yl]-3-(4-methyl-1,2,4-triazol-3-yl)benzonitrile] | ≤ 200 nM | ≤ 200 nM
3 | Cn1cnnc1-c1cc(C#N)ccc1-c1cc(C2CC2)nc(N2Cc3ccc(CNCC4CC4)cc3C2=O)c1 [AIB-2, 4-(2-Cyclopropyl-6-(6-(((cyclopropylmethyl)amino)methyl)-1-oxoisoindolin-2-yl)pyridin-4-yl)-3-(4-methyl-4H-1,2,4-triazol-3-yl)benzonitrile] | ≤ 200 nM | ≤ 200 nM
4 | COc1cc(COCC2(O)CCC2)cc2c1CN(c1cc(-c3ccc(F)cc3-c3nncn3C)cc(C3CC3)n1)C2=O [AIC-11, 2-{6-Cyclopropyl-4-[4-fluoro-2-(4-methyl-1,2,4-triazol-3-yl)phenyl]pyridin-2-yl}-6-{[(1-hydroxycyclobutyl)methoxy]methyl}-4-methoxy-3H-isoindol-1-one] | ≤ 200 nM | ≤ 200 nM
5 | CO[C@H](C)CNCc1ccc2c(c1)C(=O)N(c1cc(-c3ccc(C#N)cc3-c3nncn3C)cc(C3CC3)n1)C2 [AID-2, 4-{2-Cyclopropyl-6-[6-({[(2R)-2-methoxypropyl]amino}methyl)-1-oxo-3H-isoindol-2-yl]pyridin-4-yl}-3-(4-methyl-1,2,4-triazol-3-yl)benzonitrile] | ≤ 200 nM | ≤ 200 nM
6 | Cn1cnnc1-c1cc(C#N)ccc1-c1cc(C2CC2)nc(N2Cc3ccc(CNCC(C)(C)O)cc3C2=O)c1 [AIE-1, 4-[2-Cyclopropyl-6-(6-{[(2-hydroxy-2-methylpropyl)amino]methyl}-1-oxo-3H-isoindol-2-yl)pyridin-4-yl]-3-(4-methyl-1,2,4-triazol-3-yl)benzonitrile] | ≤ 200 nM | ≤ 200 nM
7 | Cn1cnnc1-c1cc(C#N)ccc1-c1cc(C2CC2)nc(N2Cc3ccc(CNCC4(O)CCCC4)cc3C2=O)c1 [AIF-1, 4-{2-Cyclopropyl-6-[6-({[(1-hydroxycyclopentyl)methyl]amino}methyl)-1-oxo-3H-isoindol-2-yl]pyridin-4-yl}-3-(4-methyl-1,2,4-triazol-3-yl)benzonitrile] | ≤ 200 nM | ≤ 200 nM
8 | Cn1cnnc1-c1cc(C#N)ccc1-c1cc(C2CC2)nc(N2Cc3ccc(CNCC4CCCC4)cc3C2=O)c1 [AIG-1, 4-[2-(6-{[(Cyclopentylmethyl)amino]methyl}-1-oxo-3H-isoindol-2-yl)-6-cyclopropylpyridin-4-yl]-3-(4-methyl-1,2,4-triazol-3-yl)benzonitrile] | ≤ 200 nM | ≤ 200 nM
9 | COCCNCc1cc2c(cc1F)CN(c1cc(-c3ccc(C#N)cc3-c3nncn3C)cc(C3CC3)n1)C2=O [AIH-2, 4-(2-Cyclopropyl-6-(5-fluoro-6-(((2-methoxyethyl)amino)methyl)-1-oxoisoindolin-2-yl)pyridin-4-yl)-3-(4-methyl-4H-1,2,4-triazol-3-yl)benzonitrile] | ≤ 200 nM | ≤ 200 nM
10 | Cn1cnnc1-c1cc(F)cc(F)c1-c1cc(C2CC2)nc(N2Cc3ccc(CNCC4(O)CCC4)cc3C2=O)c1 [AII-9, 2-{6-Cyclopropyl-4-[2,4-difluoro-6-(4-methyl-1,2,4-triazol-3-yl)phenyl]pyridin-2-yl}-6-({[(1-hydroxycyclobutyl)methyl]amino}methyl)-3H-isoindol-1-one] | ≤ 200 nM | ≤ 200 nM
11 | CCOc1cc(-c2ccc(F)cc2-c2nncn2C)cc(N2Cc3c(OC)cc(CNCC4(O)CCC4)cc3C2=O)n1 [AIJ-2, 2-{6-Ethoxy-4-[4-fluoro-2-(4-methyl-1,2,4-triazol-3-yl)phenyl]pyridin-2-yl}-6-({[(1-hydroxycyclobutyl)methyl]amino}methyl)-4-methoxy-3H-isoindol-1-one] | ≤ 200 nM | ≤ 200 nM
12 | COC[C@@H](C)NCc1ccc2c(c1)C(=O)N(c1cc(-c3ccc(C#N)cc3-c3nncn3C)cc(C3CC3)n1)C2 [AIK-2, 4-{2-Cyclopropyl-6-[6-({[(2R)-1-methoxypropan-2-yl]amino}methyl)-1-oxo-3H-isoindol-2-yl]pyridin-4-yl}-3-(4-methyl-1,2,4-triazol-3-yl)] | ≤ 200 nM | ≤ 200 nM
13 | CC(C)OCCNCc1ccc2c(c1)C(=O)N(c1cc(-c3ccc(C#N)cc3-c3nncn3C)cc(C3CC3)n1)C2 [AIL-3, 4-[2-Cyclopropyl-6-(6-{[(2-isopropoxyethyl)amino]methyl}-1-oxo-3H-isoindol-2-yl)pyridin-4-yl]-3-(4-methyl-1,2,4-triazol-3-yl)benzonitrile] | ≤ 200 nM | ≤ 200 nM
14 | CO[C@@H](C)CNCc1ccc2c(c1)C(=O)N(c1cc(-c3ccc(C#N)cc3-c3nncn3C)cc(C3CC3)n1)C2 [AIM-2, 4-{2-cyclopropyl-6-[6-({[(2S)-2-methoxypropyl]amino}methyl)-1-oxo-3H-isoindol-2-yl]pyridin-4-yl}-3-(4-methyl-1,2,4-triazol-3-yl) benzonitrile] | ≤ 200 nM | ≤ 200 nM
15 | CCOCCNCc1ccc2c(c1)C(=O)N(c1cc(-c3ccc(C#N)cc3-c3nncn3C)cc(C3CC3)n1)C2 [AIN-2, 4-[2-cyclopropyl-6-(6-{[(2-ethoxyethyl)amino]methyl}-1-oxo-3H-isoindol-2-yl)pyridin-4-yl]-3-(4-methyl-1,2,4-triazol-3-yl)benzonitrile] | ≤ 200 nM | ≤ 200 nM
16 | COCCNCc1cc(F)c2c(c1)C(=O)N(c1cc(-c3ccc(C#N)cc3-c3nncn3C)cc(C3CC3)n1)C2 [AIO-9, 4-[2-Cyclopropyl-6-(4-fluoro-6-{[(2-methoxyethyl)amino]methyl}-1-oxo-3H-isoindol-2-yl)pyridin-4-yl]-3-(4-methyl-1,2,4-triazol-3-yl)benzonitrile] | ≤ 200 nM | ≤ 200 nM
17 | CC[C@@H](O)CNCc1ccc2c(c1)C(=O)N(c1cc(-c3ccc(C#N)cc3-c3nncn3C)cc(C3CC3)n1)C2 [AIP-2, 4-{2-Cyclopropyl-6-[6-({[(2R)-2-hydroxybutyl]amino}methyl)-1-oxo-3H-isoindol-2-yl]pyridin-4-yl}-3-(4-methyl-1,2,4-triazol-3-yl)benzonitrile] | ≤ 200 nM | ≤ 200 nM
18 | COCCOCc1ccc2c(c1)C(=O)N(c1cc(-c3ccc(C#N)cc3-c3nncn3C)cc(C3CC3)n1)C2 [AIQ-2, 4-(2-Cyclopropyl-6-(6-((2-methoxyethoxy)methyl)-1-oxoisoindolin-2-yl)pyridin-4-yl)-3-(4-methyl-4H-1,2,4-triazol-3-yl)benzonitrile] | ≤ 200 nM | ≤ 200 nM
19 | COC[C@H](C)NCc1ccc2c(c1)C(=O)N(c1cc(-c3ccc(C#N)cc3-c3nncn3C)cc(C3CC3)n1)C2 [AIR-2, (S)-4-(2-cyclopropyl-6-(6-(((1-methoxypropan-2-yl)amino)methyl)-1-oxoisoindolin-2-yl)pyridin-4-yl)-3-(4-methyl-4H-1,2,4-triazol-3-yl)benzonitrile] | ≤ 200 nM | ≤ 200 nM
20 | Cn1cnnc1-c1cc(C#N)ccc1-c1cc(C2CC2)nc(N2Cc3ccc(COCC4CCCC4)cc3C2=O)c1 [AIS-2, 4-(2-{6-[(cyclopentylmethoxy)methyl]-1-oxo-3H-isoindol-2-yl}-6-cyclopropylpyridin-4-yl)-3-(4-methyl-1,2,4-triazol-3-yl)benzonitrile] | ≤ 200 nM | ≤ 200 nM
21 | CNCc1ccc2c(c1)C(=O)N(c1cc(-c3ccc(C#N)cc3-c3nncn3C)cc(C3CC3)n1)C2 [AIT-1, 4-(2-cyclopropyl-6-{6-[(methylamino)methyl]-1-oxo-3H-isoindol-2-yl}pyridin-4-yl)-3-(4-methyl-1,2,4-triazol-3-yl)benzonitrile] | ≤ 200 nM | ≤ 200 nM

Reference: patent US12325697B2 (Nimbus Clio, Inc., priority 2021, dated 2025)
